These results are taken from patent US10336702B2, “Pharmaceutically active compounds” (BERGENBIO ASA, priority 2015, dated 2019).

The target of assay [1] is T1, p-Akt3 in WM115 cells (Homo sapiens, UniProt Q9Y243).
T1 construct: SureFire assays to detect cellular p-Akt1, p-Akt2 and p-Akt3 levels in WM115 cells (Akt2/3) and LNCaP cells (Akt1); endogenous in cells; host or cells: WM115 (ECACC 91061232), insulin-stimulated
Kind of assay: Phospho-Akt cellular SureFire assay, p-Akt3 in WM115 cells. Format: cell-based. To be noted: insulin stimulated, read-out: Biological Assay 2 IC50 (nM) Akt3 WM115. An excerpt: (§1) Biological Assay 2: Phospho-Akt (p-Akt) Cellular SureFire Assays
(§2) The following describes SureFire assays to detect cellular p-Akt1, p-Akt2 and p-Akt3 levels in WM115 cells (Akt2/3) and LNCaP cells (Akt1). In the case of Akt2 and Akt3, Streptavidin-coated donor beads capture a biotinylated anti-mouse antibody that in turn recognises a mouse total Akt antibody which is specific to each isoform. The protein A-conjugated acceptor beads capture an antibody that recognises the phosphoprotein. Similarly in the Akt1 kit, the donor and acceptor beads are used to capture each antibody pair consisting of an antibody that specifically recognises Akt1 as well as an antibody that recognises the phosphoprotein. In each case, close proximity of the beads allows energy transfer from donor to acceptor.
(§3) Custom kit from TGR/Perkin Elmer for Akt2/3 containing anti-(pThr308)Akt antibody and biotinylated anti-mouse capture antibody.
Total Akt3 antibody (R&D Systems MAB 1463)
(§4) WM115 cells (ECACC, 91061232) cultured in MEM culture media (M2279) supplemented with 2 mM L-glutamine (G7513), 1% non-essential amino acids (M7145), 1% sodium pyruvate (S8636) and 10% FBS (F0804)
(§5) Cell treatment: 1×10^5 WM115 cells or 5×10^4 LNCaP cells were seeded into each well of a 96 well poly-D-Lysine coated tissue culture plate and incubated overnight at 37° C.+5% CO2. Media was removed from cells and replaced with assay buffer consisting of the full culture media described above but with 0.1% FBS instead of 10% FBS. Only WM115 cells were stimulated at 37° C.+5% CO2 for 10 min with 5 μL insulin at a final concentration of 100 nM. Cells were incubated with 5 μL of test compound at a final DMSO concentration of 0.3% for 15 min at 37° C.+5% CO2. Cell lysis was carried out according to kit instructions.
(§6) Assay format (performed in subdued lighting): 4 μL cell lysate and 5 μL reaction buffer were incubated together in the dark at room temperature for 2 h. Reaction buffer was supplemented with a 1/5 dilution of activation buffer, a 1/50 dilution of acceptor beads and in the case of the custom kits, antibodies were added at dilutions of 1/20,000 for Akt2 and 1/2,000 for Akt3.
(§7) 2 μL dilution buffer, supplemented with a 1/20 dilution of donor beads was added to each well and incubated for a further 2 h. Plates were read with the EnVision® Multilabel Plate Reader and using the AlphaScreen settings. Compound IC50 was determined using a 4-parameter equation.

Assay [2] has as its target T2, Akt3 (Homo sapiens, UniProt Q9Y243).
T2 construct: unspecified tag, removed (detagged) (cleaved yes); purchased SignalChem and Proteros (Akt3); Merck Millipore (PDK1) 14-452 (PDK1); none given for Akt3
Kind of assay: Akt activation assay (PDK1-mediated activation, LANCE Ultra crosstide TR-FRET), Akt3. Format: biochemical. To be noted: read-out: Biological Assay 1 IC50 (nM) Akt3. The method in brief: (§8)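 Two-step cascade format: Akt1, Akt2 or Akt3 phosphorylates Ulight-crosstide (100 nM) only after activation by 5 nM PDK1 in presence of PtdIns(3,4,5)P3 vesicles and 100 μM ATP. Product quantified by Eu-antibody TR-FRET after 30 min reaction.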
On the technique in general: Time-resolved FRET reads energy transfer from a long-lived donor to a nearby acceptor.

Assay [3] concerns the target T3, p-Akt2 in WM115 cells (Homo sapiens, UniProt P31751).
T3 construct: SureFire assays to detect cellular p-Akt1, p-Akt2 and p-Akt3 levels in WM115 cells (Akt2/3) and LNCaP cells (Akt1); endogenous in cells; host or cells: WM115 (ECACC 91061232), insulin-stimulated
In words: Phospho-Akt cellular SureFire assay, p-Akt2 in WM115 cells. The note with it: insulin stimulated, read-out: Biological Assay 2 IC50 (nM) Akt2 WM115. Format: cell-based.
Text: as §1, §2, §3
Total Akt2 antibody (NEB UK, 5239)
as §4, §5, §6, §7

Assay [4] concerns the target T4, p-Akt1 in LNCaP cells (Homo sapiens, UniProt P31749).
T4 construct: SureFire assays to detect cellular p-Akt1, p-Akt2 and p-Akt3 levels in WM115 cells (Akt2/3) and LNCaP cells (Akt1); endogenous in cells; host or cells: LNCaP (ECACC 89110211)
Kind of assay: Phospho-Akt cellular SureFire assay, p-Akt1 in LNCaP cells. Format: cell-based. To be noted: read-out: Biological Assay 2 IC50 (nM) Akt1 LNCaP.
Text: as §1, §2
AlphaScreen® SureFire™ Phospho-Akt1 (pThr308) Kit from Perkin Elmer (TGRA2S10K)
LNCaP cells (ECACC, 89110211) cultured in RPMI-1640 culture media (Fisher, 10665193) supplemented with 2 mM L-glutamine, 1% sodium pyruvate and 10% FBS
as §5, §6, §7

Assay [5] has as its target T5, Akt2 (Homo sapiens, UniProt P31751).
T5 construct: unspecified tag, removed (detagged) (cleaved yes); purchased SignalChem and Proteros (Akt2); Merck Millipore (PDK1) 14-452 (PDK1); none given for Akt2
Kind of assay: Akt activation assay (PDK1-mediated activation, LANCE Ultra crosstide TR-FRET), Akt2. Format: biochemical. To be noted: read-out: Biological Assay 1 IC50 (nM) Akt2. In a few lines:
as §8

The target of assay [6] is T6, Akt1 (Homo sapiens, UniProt P31749).
T6 construct: unspecified tag, removed (detagged) (cleaved yes); purchased SignalChem and Proteros (Akt1); Merck Millipore (PDK1) 14-452 (PDK1); none given for Akt1
T6 sequence (P31749 whole entry): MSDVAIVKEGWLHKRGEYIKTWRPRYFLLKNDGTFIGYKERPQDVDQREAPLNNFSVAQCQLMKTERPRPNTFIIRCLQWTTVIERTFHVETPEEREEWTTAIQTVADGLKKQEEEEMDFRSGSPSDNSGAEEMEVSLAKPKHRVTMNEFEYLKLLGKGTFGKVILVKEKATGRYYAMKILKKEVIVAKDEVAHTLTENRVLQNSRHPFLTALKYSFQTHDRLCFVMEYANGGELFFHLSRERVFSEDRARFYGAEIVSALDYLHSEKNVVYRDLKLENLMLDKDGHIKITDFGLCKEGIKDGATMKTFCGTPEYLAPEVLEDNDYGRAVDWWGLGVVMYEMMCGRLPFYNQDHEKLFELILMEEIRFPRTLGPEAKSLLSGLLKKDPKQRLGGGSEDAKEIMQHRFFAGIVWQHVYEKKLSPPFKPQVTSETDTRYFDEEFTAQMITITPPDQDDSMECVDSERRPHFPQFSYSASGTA
In words: Akt activation assay (PDK1-mediated activation, LANCE Ultra crosstide TR-FRET), Akt1. Format: biochemical. To be noted: read-out: Biological Assay 1 IC50 (nM) Akt1. In a few lines:
as §8

T4 sequence (P31749 whole entry): as above
T1 sequence (Q9Y243 whole entry): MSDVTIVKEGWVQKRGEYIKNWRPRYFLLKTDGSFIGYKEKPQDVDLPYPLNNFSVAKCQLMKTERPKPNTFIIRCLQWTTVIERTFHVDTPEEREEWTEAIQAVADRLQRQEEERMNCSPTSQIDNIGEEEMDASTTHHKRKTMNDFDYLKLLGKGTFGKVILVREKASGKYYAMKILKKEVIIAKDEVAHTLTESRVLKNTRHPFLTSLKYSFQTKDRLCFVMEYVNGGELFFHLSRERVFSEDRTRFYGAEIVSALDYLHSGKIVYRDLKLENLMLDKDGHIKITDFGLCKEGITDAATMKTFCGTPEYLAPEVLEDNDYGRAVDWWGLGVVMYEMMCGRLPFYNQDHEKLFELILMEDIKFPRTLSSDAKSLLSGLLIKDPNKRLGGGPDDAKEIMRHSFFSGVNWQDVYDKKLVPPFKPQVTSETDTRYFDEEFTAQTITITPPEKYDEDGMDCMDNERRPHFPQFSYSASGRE
T2 sequence (Q9Y243 whole entry): as above
T3 sequence (P31751 whole entry): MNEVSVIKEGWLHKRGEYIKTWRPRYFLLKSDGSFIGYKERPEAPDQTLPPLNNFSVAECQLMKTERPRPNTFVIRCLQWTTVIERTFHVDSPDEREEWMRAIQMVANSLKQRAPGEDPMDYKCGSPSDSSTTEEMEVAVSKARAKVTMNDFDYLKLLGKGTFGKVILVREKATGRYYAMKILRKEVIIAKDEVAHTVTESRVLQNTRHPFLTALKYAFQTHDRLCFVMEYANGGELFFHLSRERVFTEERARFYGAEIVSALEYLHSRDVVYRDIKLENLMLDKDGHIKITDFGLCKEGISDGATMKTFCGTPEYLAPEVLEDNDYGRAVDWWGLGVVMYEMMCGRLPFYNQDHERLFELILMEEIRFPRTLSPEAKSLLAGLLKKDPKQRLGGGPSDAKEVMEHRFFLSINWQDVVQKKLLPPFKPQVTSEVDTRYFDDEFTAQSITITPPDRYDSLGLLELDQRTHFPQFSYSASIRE
T5 sequence (P31751 whole entry): as above

As a reminder, the IC50 is the concentration that inhibits the measured activity by half. `CC(=O)N(C)[C@H]1CC[C@H](CC(=O)Nc2cc(-c3ccccc3)c(-c3ccc(C4(N)CCC4)cc3)cn2)CC1` [Example 33, N-(5-(4-(1-aminocyclobutyl)phenyl)-4-phenylpyridin-2-yl)-2-(trans-4-(N-methylacetamido)cyclohexyl)acetamide]: the IC50 in assay [1] came to 100 nM; in assay [2] it was 92 nM; in assay [3], 2500 nM; in assay [4], 9800 nM; in assay [5], 540 nM.
As for `CC(C)(N)c1ccc(-c2ncc(NC(=O)C[C@H]3CC[C@H](N4CCCCC4=O)CC3)cc2-c2ccccc2)cc1` [Example 28, N-(6-(4-(2-aminopropan-2-yl)phenyl)-5-phenylpyridin-3-yl)-2-(trans-4-(2-oxopiperidin-1-yl)cyclohexyl)acetamide], the IC50 was greater than 30000 nM in assay [6]; 260 nM in assay [1]; 440 nM in assay [2]; greater than 30000 nM in assay [4]; 7000 nM in assay [5].
Consider `COC(=O)N(C)[C@H]1CC[C@H](CC(=O)Nc2cc(-c3ccccc3)c(-c3ccc(C4(N)CC4)cc3)nn2)CC1` [Example A77, Methyl (trans-4-(2-((6-(4-(1-aminocyclopropyl)phenyl)-5-phenylpyridazin-3-yl)amino)-2-oxoethyl)cyclohexyl)(methyl)carbamate], for which the IC50 in assay [6] is greater than 25000 nM; in assay [1], 240 nM; in assay [2], 22 nM; in assay [4], greater than 30000 nM; in assay [5] it was 590 nM.
Regarding `CC(=O)N(C)[C@H]1CC[C@H](CC(=O)Nc2cc(-c3ccccc3)c(-c3ccc([C@]4(N)C[C@](C)(O)C4)cc3)cn2)CC1` [Example A58, N-(5-(4-(trans-1-amino-3-hydroxy-3-methylcyclobutyl)phenyl)-4-phenylpyridin-2-yl)-2-(trans-4-(N-methylacetamido)cyclohexyl)acetamide], the IC50 worked out at 11 nM in assay [1]; 8 nM in assay [2]; 480 nM in assay [3]; 7900 nM in assay [4]; 190 nM in assay [5].
The like results for `CCC(=O)N(C)[C@H]1CC[C@H](CC(=O)Nc2cc(-c3ccsc3)c(-c3ccc([C@]4(N)C[C@](C)(O)C4)cc3)cn2)CC1` [Example 110, N-(trans-4-(2-((5-(4-(trans-1-amino-3-hydroxy-3-methylcyclobutyl)phenyl)-4-(thiophen-3-yl)pyridin-2-yl)amino)-2-oxoethyl)cyclohexyl)-N-methylpropionamide] were, in that order, 16 nM, 17 nM, 1200 nM, 8800 nM and 380 nM.
On to `COC(=O)N(C)[C@H]1CC[C@H](CC(=O)Nc2cnc(-c3ccc(C4(N)CC4)c(F)c3)c(-c3ccccc3)c2)CC1` [Example 62, Methyl (trans-4-(2-((6-(4-(1-aminocyclopropyl)-3-fluorophenyl)-5-phenylpyridin-3-yl)amino)-2-oxoethyl)cyclohexyl)(methyl)carbamate], for which the IC50 was greater than 30000 nM in assay [6]; 360 nM in assay [1]; 170 nM in assay [2]; greater than 30000 nM in assay [4]; 2300 nM in assay [5].
With `C[C@]1(O)C[C@@](N)(c2ccc(-c3nnc(NC(=O)C[C@H]4CC[C@H](N5CCOC5=O)CC4)nc3-c3ccccc3F)cc2)C1` [Example 68, N-(6-(4-(trans-1-amino-3-hydroxy-3-methylcyclobutyl)phenyl)-5-(2-fluorophenyl)-1,2,4-triazin-3-yl)-2-(trans-4-(2-oxooxazolidin-3-yl)cyclohexyl)acetamide], the IC50 was 6400 nM in assay [6]; 410 nM in assay [1]; 99 nM in assay [2]; greater than 30000 nM in assay [4]; 860 nM in assay [5].
For `CC(C)OC(=O)N(C)[C@H]1CC[C@H](CC(=O)Nc2cc(-c3ccccc3)c(-c3ccc([C@]4(N)C[C@](C)(O)C4)cc3)cn2)CC1` [Example A74, Isopropyl (trans-4-(2-((5-(4-(trans-1-amino-3-hydroxy-3-methylcyclobutyl)phenyl)-4-phenylpyridin-2-yl)amino)-2-oxoethyl)cyclohexyl)(methyl)carbamate], the half-inhibitory concentration (IC50) in assay [1] was 160 nM; in assay [2], 22 nM; in assay [3], 3000 nM; in assay [4], 11000 nM; in assay [5], 210 nM.
Turning to `COCCN(C)[C@H]1CC[C@H](CC(=O)Nc2cnc(-c3ccc(C4(N)CCC4)cc3)c(-c3ccsc3)c2)CC1` [Example 39, N-(6-(4-(1-aminocyclobutyl)phenyl)-5-(thiophen-3-yl)pyridin-3-yl)-2-(trans-4-((2-methoxyethyl)(methyl)amino)cyclohexyl)acetamide], the IC50 in assay [1] was 180 nM; in assay [2] it was 2300 nM; in assay [3] it was 4200 nM; in assay [4], greater than 14000 nM; in assay [5] it was 3100 nM.
`COC(=O)N(C)[C@H]1CC[C@H](CC(=O)Nc2cc(-c3ccccc3)c(-c3ccc(C(C)(C)N)cc3)cn2)CC1` [Example A48, Methyl (trans-4-(2-((5-(4-(2-aminopropan-2-yl)phenyl)-4-phenylpyridin-2-yl)amino)-2-oxoethyl)cyclohexyl)(methyl)carbamate]: the IC50 in assay [1] is 1700 nM; in assay [3] it was greater than 30000 nM; in assay [4] it was greater than 30000 nM.
Take `COC(=O)N(C)[C@H]1CC[C@H](CC(=O)Nc2cc(-c3ccccc3)c(-c3ccc([C@]4(N)C[C@H](F)C4)cc3)nn2)CC1` [Example A60, Methyl (trans-4-(2-((6-(4-(trans-1-amino-3-fluorocyclobutyl)phenyl)-5-phenylpyridazin-3-yl)amino)-2-oxoethyl)cyclohexyl)(methyl)carbamate]: the IC50 was 670 nM in assay [1]; 22 nM in assay [2]; 15000 nM in assay [3]; greater than 30000 nM in assay [4]; 630 nM in assay [5].
For `CC(C)N(C(=O)C1CC1)[C@H]1CC[C@H](CC(=O)Nc2cc(-c3ccccc3)c(-c3ccc([C@]4(N)C[C@](C)(O)C4)cc3)cn2)CC1` [Example A108, N-(trans-4-(2-((5-(4-(trans-1-amino-3-hydroxy-3-methylcyclobutyl)phenyl)-4-phenylpyridin-2-yl)amino)-2-oxoethyl)cyclohexyl)-N-isopropylcyclopropanecarboxamide], the IC50 was 110 nM in assay [1]; 23 nM in assay [2]; 2700 nM in assay [3]; greater than 10000 nM in assay [4]; 360 nM in assay [5].
